In ChEMBL document CHEMBL1201862, “PubChem BioAssay data set” (2004):
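Assay format: 96-well plates, 48-hour exposure. The concentration for 50% growth inhibition is given as GI50.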 The source made the active and inactive calls. Rule as the data show it: active = GI50 up to about 1.1 µM and inactive = higher.

Columns and labels:
Test in all cases: inhibition of tumour cell growth, NCI panel, 48 h
[1] = system: HCT-15
[2] = system: MOLT-4
[3] = system: U-251
[4] = system: 786-0
[5] = system: UACC-62
[6] = system: SNB-19
[7] = system: SNB-75
[8] = system: OVCAR-5
[9] = system: HT-29
[10] = system: SF-295
[11] = system: OVCAR-3
[12] = system: A549
[13] = system: SK-MEL-5
[14] = system: ACHN
[15] = system: TK-10
[16] = system: NCI/ADR-RES
[17] = system: UACC-257
[18] = system: KM12
[19] = system: CAKI-1

SMILES | GI50 [1] [µM] | GI50 [2] | GI50 [3] | GI50 [4] | GI50 [5] | GI50 [6] | GI50 [7] | GI50 [8] | GI50 [9] | GI50 [10] | GI50 [11] | GI50 [12] | GI50 [13] | GI50 [14] | GI50 [15] | GI50 [16] | GI50 [17] | GI50 [18] | GI50 [19]
COc1cc(C2c3cc4c(cc3OC3(OC)COC(=O)C23)OCO4)cc(OC)c1OC(C)=O (configuration not stated) | 0.798 | 3.96 µM (inactive) | 2.13 µM (inactive) | 1.21 µM (inactive) | 4.78 µM (inactive) | 5.94 µM (inactive) | 0.384 µM (active) | 4.6 µM (inactive) | 2.47 µM (inactive) | 0.321 µM (active) | 1.3 µM (inactive) | 1.54 µM (inactive) | 0.726 µM (active) | 1.32 µM (inactive) | 19.3 µM (inactive) | 0.323 µM (active) | > 39.4 µM (inactive) | 0.881 µM (active) | 
CC[C@@H]1/C=C/C=C/C[C@H](C)[C@@H](O)[C@](C)(O)C(=O)[C@H](C)[C@@H](O)[C@H](C)C(=O)[C@H](C)[C@@H](O)[C@H](C)/C=C/C(=O)O[C@H]2[C@@H](C)[C@@H](CC1)O[C@@]1(CC[C@@H](C)[C@@H](CC(C)O)O1)[C@@H]2C (some centres not stated) | 1.86 | 1.3 µM (inactive) | < 0.01 µM (active) | 1.85 µM (inactive) | 1.71 µM (inactive) | < 0.01 µM (active) |  | 1.68 µM (inactive) | 1.36 µM (inactive) | < 0.01 µM (active) |  | < 0.01 µM (active) | < 0.01 µM (active) | 1.35 µM (inactive) | 1.65 µM (inactive) |  | < 0.01 µM (active) | 1.69 µM (inactive) | 1.73 µM (inactive)
CC(=O)c1cc(S(=O)(=O)c2ccc(O)c(C(C)=O)c2)ccc1O | 95.9 | 25.4 µM (inactive) | 31.6 µM (inactive) | 98.2 µM (inactive) | 18.4 µM (inactive) | 68.5 µM (inactive) |  | > 100 µM (inactive) | > 100 µM (inactive) | 36.5 µM (inactive) | > 100 µM (inactive) | 49.4 µM (inactive) | > 100 µM (inactive) | 91 µM (inactive) | 52 µM (inactive) | 58.7 µM (inactive) | > 100 µM (inactive) | 44.9 µM (inactive) | > 100 µM (inactive)
O=[N+]([O-])c1ccc(Oc2c(Cl)cc(S(=O)(=O)N/C(=N\O)Nc3ccc(Cl)cc3)cc2Cl)c(Cl)c1 | 16.3 | 10.8 µM (inactive) | 15.4 µM (inactive) | 14.7 µM (inactive) | 14.4 µM (inactive) | 16.9 µM (inactive) |  | 19.5 µM (inactive) | 16.9 µM (inactive) | 17.3 µM (inactive) | 12.2 µM (inactive) | 17.1 µM (inactive) | 16.9 µM (inactive) | 15 µM (inactive) | 16 µM (inactive) | 21.7 µM (inactive) | 15.6 µM (inactive) | 13.7 µM (inactive) | 14.8 µM (inactive)
CC12CC(c3ccccc3O1)C(C(=O)Nc1ccc(Cl)cc1Cl)C(=O)N2 (configuration not stated) | 54.2 | 19.1 µM (inactive) | 22.2 µM (inactive) | 19.7 µM (inactive) | > 100 µM (inactive) | 36.7 µM (inactive) |  | 29.6 µM (inactive) | 40.1 µM (inactive) | 48.2 µM (inactive) | 38 µM (inactive) | 23.2 µM (inactive) | > 100 µM (inactive) | 25 µM (inactive) |  | 36.8 µM (inactive) | > 100 µM (inactive) | > 100 µM (inactive) | 45 µM (inactive)
O=C(NCCC1CN(S(=O)(=O)C(F)(F)F)c2ccccc21)OCc1ccccc1 (configuration not stated) | > 100 | 59.2 µM (inactive) | 83.9 µM (inactive) | > 100 µM (inactive) | > 100 µM (inactive) | > 100 µM (inactive) |  | > 100 µM (inactive) | > 100 µM (inactive) | > 100 µM (inactive) | > 100 µM (inactive) | > 100 µM (inactive) | > 100 µM (inactive) | > 100 µM (inactive) |  | > 100 µM (inactive) | > 100 µM (inactive) | 83.4 µM (inactive) | > 100 µM (inactive)
Nc1nc(-[n+]2ccc(-c3ccncc3)cc2)nc(Cl)c1Cl | 49.4 | 18.9 µM (inactive) | 35.4 µM (inactive) | 13.5 µM (inactive) | > 100 µM (inactive) | 27 µM (inactive) |  | > 100 µM (inactive) | 88.5 µM (inactive) |  | 17.3 µM (inactive) | > 100 µM (inactive) | > 100 µM (inactive) | > 100 µM (inactive) | 26.3 µM (inactive) | > 100 µM (inactive) | 20.4 µM (inactive) | 43.6 µM (inactive) | 
CC(=O)N[C@@H](Cc1ccc(O)cn1)C(=O)NCc1cccc(F)c1 | > 100 |  | > 100 µM (inactive) | > 100 µM (inactive) | > 100 µM (inactive) | > 100 µM (inactive) |  | > 100 µM (inactive) | > 100 µM (inactive) | > 100 µM (inactive) | > 100 µM (inactive) | > 100 µM (inactive) | > 100 µM (inactive) | > 100 µM (inactive) | > 100 µM (inactive) | > 100 µM (inactive) | > 100 µM (inactive) | > 100 µM (inactive) | > 100 µM (inactive)
C=CC1(c2ccc(-c3ccccc3)cc2)OCCO1 | 29.5 | 40.6 µM (inactive) | 54.8 µM (inactive) | 46.8 µM (inactive) | 26.1 µM (inactive) | 25.8 µM (inactive) | 39.1 µM (inactive) | 64.4 µM (inactive) | 28.2 µM (inactive) | > 100 µM (inactive) | 83.4 µM (inactive) | 73.8 µM (inactive) | 35 µM (inactive) | > 100 µM (inactive) | 89.1 µM (inactive) | 65.6 µM (inactive) | 78.9 µM (inactive) | 41.2 µM (inactive) | 
c1ccc(C2=NN=C3C(c4ccccc4)=Nc4ccccc4N3C2)cc1 | 11.6 | 3.87 µM (inactive) | 14.3 µM (inactive) | 11.9 µM (inactive) | 30.3 µM (inactive) | 24.2 µM (inactive) |  | 32.2 µM (inactive) | 23.3 µM (inactive) |  | 3.37 µM (inactive) | 30.6 µM (inactive) | 14.1 µM (inactive) | 34.4 µM (inactive) | 5.08 µM (inactive) | 14.7 µM (inactive) | 7.55 µM (inactive) | 29 µM (inactive) | 43.7 µM (inactive)
CC1(O)CC(C(F)(F)F)(C(F)(F)F)OC1=O (configuration not stated) | > 10 | > 10 µM (inactive) | > 10 µM (inactive) | > 10 µM (inactive) | > 10 µM (inactive) | > 10 µM (inactive) |  | > 10 µM (inactive) | > 10 µM (inactive) | > 10 µM (inactive) | > 10 µM (inactive) | > 10 µM (inactive) | > 10 µM (inactive) | > 10 µM (inactive) | > 10 µM (inactive) | > 10 µM (inactive) | > 10 µM (inactive) | > 10 µM (inactive) | > 10 µM (inactive)
CC/C(=C\c1ccc(Cl)c(Cl)c1)[N+](=O)[O-] | 1.66 | 0.236 µM (active) | 1.86 µM (inactive) | 1.59 µM (inactive) | 1.93 µM (inactive) | 2.36 µM (inactive) | 3.84 µM (inactive) | 2.06 µM (inactive) | 3.4 µM (inactive) | 2.04 µM (inactive) |  | 2.1 µM (inactive) | 1.97 µM (inactive) | 1.75 µM (inactive) | 1.94 µM (inactive) | 2.27 µM (inactive) | 1.94 µM (inactive) | 2.96 µM (inactive) | 
